Data reported in ChEMBL document CHEMBL3217615, “Novel 3,5-bis(arylidiene)-4-piperidone based monocarbonyl analogs of curcumin: anticancer activity evaluation and mode of action study” (2014).

How the values were obtained:
Assay type in all cases: functional
A549 [1] = assay: Growth inhibition of human A549/ATCC cells after 48 hrs by sulforhodamine B assay; settings: A549, 48 h; for CC50: read-out: LC50 (the source's name)
SK-MEL-5 = assay: Growth inhibition of human SK-MEL-5 cells assessed as cell growth at 10^-6 M after 48 hrs by sulforhodamine B assay; settings: SK-MEL-5, 48 h, read-out: Activity
IGROV-1 = assay: Growth inhibition of human IGROV1 cells after 48 hrs by sulforhodamine B assay; settings: IGROV-1, 48 h; for CC50: read-out: LC50 (the source's name)
A549 [2] = assay: Growth inhibition of human A549/ATCC cells assessed as cell growth at 10^-7 M after 48 hrs by sulforhodamine B assay; settings: A549, 48 h, read-out: Activity
MDA-MB-468 = assay: Growth inhibition of human MDA-MB-468 cells after 48 hrs by sulforhodamine B assay; settings: MDA-MB-468, 48 h; for CC50: read-out: LC50 (the source's name)
[3] = Growth inhibition of human HCC2998 cells assessed as cell growth at 10^-7 M after 48 hrs by sulforhodamine B assay; settings: HCC 2998, 48 h, read-out: Activity
[4] = Growth inhibition of human SF295 cells assessed as cell growth at 10^-4 M after 48 hrs by sulforhodamine B assay; settings: SF-295, 48 h, read-out: Activity
NCI-H460 [5] = assay: Growth inhibition of human NCI-H460 cells assessed as cell growth at 10^-6 M after 48 hrs by sulforhodamine B assay; settings: NCI-H460, 48 h, read-out: Activity
HT-29 = assay: Growth inhibition of human HT-29 cells assessed as cell growth at 10^-7 M after 48 hrs by sulforhodamine B assay; settings: HT-29, 48 h, read-out: Activity
[6] = Growth inhibition of human RXF393 cells assessed as cell growth at 10^-7 M after 48 hrs by sulforhodamine B assay; settings: RXF 393, 48 h, read-out: Activity
[7] = Growth inhibition of human HOP92 cells assessed as cell growth at 10^-8 M after 48 hrs by sulforhodamine B assay; settings: HOP-92, 48 h; for growth at 0.01 µM: read-out: Activity; for TGI: read-out: pTGI (converted)
[8] = Growth inhibition of human HCC2998 cells after 48 hrs by sulforhodamine B assay; settings: HCC 2998, 48 h; for CC50: read-out: LC50 (the source's name)
[9] = Growth inhibition of human OVCAR8 cells assessed as cell growth at 10^-4 M after 48 hrs by sulforhodamine B assay; settings: OVCAR-8, 48 h, read-out: Activity
ACHN = assay: Growth inhibition of human ACHN cells assessed as cell growth at 10^-6 M after 48 hrs by sulforhodamine B assay; settings: read-out: Activity
[10] = Growth inhibition of human OVCAR3 cells assessed as cell growth at 10^-7 M after 48 hrs by sulforhodamine B assay; settings: OVCAR-3, 48 h, read-out: Activity
SW-620 = assay: Growth inhibition of human SW620 cells assessed as cell growth at 10^-4 M after 48 hrs by sulforhodamine B assay; settings: SW-620, 48 h, read-out: Activity
M14 = assay: Growth inhibition of human M14 cells assessed as cell growth at 10^-8 M after 48 hrs by sulforhodamine B assay; settings: M14, 48 h; for growth at 0.01 µM: read-out: Activity; for CC50: read-out: pLC50 (the source's name) (converted); for TGI: read-out: pTGI (converted)
SNB-19 = assay: Growth inhibition of human SNB19 cells assessed as cell growth at 10^-4 M after 48 hrs by sulforhodamine B assay; settings: SNB-19, 48 h, read-out: Activity
COLO 205 [11] = assay: Induction of apoptosis in human COLO205 cells assessed as viable cells level at 10 uM after 24 hrs by Annexin V/propidium iodide staining-based fluorescence microscopy
[12] = Growth inhibition of human HCC2998 cells assessed as cell growth at 10^-6 M after 48 hrs by sulforhodamine B assay; settings: HCC 2998, 48 h, read-out: Activity
[13] = Growth inhibition of human UO31 cells after 48 hrs by sulforhodamine B assay; settings: UO-31, 48 h; for CC50: read-out: LC50 (the source's name)
NCI-H522 = assay: Growth inhibition of human NCI-H522 cells assessed as cell growth at 10^-8 M after 48 hrs by sulforhodamine B assay; settings: NCI-H522, 48 h; for growth at 0.01 µM: read-out: Activity; for CC50: read-out: pLC50 (the source's name) (converted); for TGI: read-out: pTGI (converted)
RPMI-8226 = assay: Growth inhibition of human RPMI8226 cells assessed as cell growth at 10^-7 M after 48 hrs by sulforhodamine B assay; settings: RPMI-8226, 48 h, read-out: Activity
A498 = assay: Growth inhibition of human A498 cells assessed as cell growth at 10^-4 M after 48 hrs by sulforhodamine B assay; settings: A498, 48 h, read-out: Activity
COLO 205 [14] = assay: Growth inhibition of human COLO205 cells assessed as cell growth at 10^-8 M after 48 hrs by sulforhodamine B assay; settings: COLO 205, 48 h; for growth at 0.01 µM: read-out: Activity; for TGI: read-out: pTGI (converted)
COLO 205 [15] = assay: Induction of apoptosis in human COLO205 cells assessed as late apoptosis cells level at 10 uM after 24 hrs by Annexin V/propidium iodide staining-based fluorescence microscopy
NCI-H460 [16] = assay: Growth inhibition of human NCI-H460 cells assessed as cell growth at 10^-4 M after 48 hrs by sulforhodamine B assay; settings: NCI-H460, 48 h, read-out: Activity
[17] = Growth inhibition of human SF539 cells assessed as cell growth at 10^-8 M after 48 hrs by sulforhodamine B assay; settings: SF-539, 48 h; for growth at 0.01 µM: read-out: Activity; for TGI: read-out: pTGI (converted)
[18] = Growth inhibition of human OVCAR8 cells assessed as cell growth at 10^-6 M after 48 hrs by sulforhodamine B assay; settings: OVCAR-8, 48 h, read-out: Activity
MDA-MB-231 = assay: Growth inhibition of human MDA-MB-231 cells after 48 hrs by sulforhodamine B assay; settings: MDA-MB-231, 48 h
SK-MEL-28 = assay: Growth inhibition of human SK-MEL-28 cells assessed as cell growth at 10^-6 M after 48 hrs by sulforhodamine B assay; settings: SK-MEL-28, 48 h, read-out: Activity
[19] = Growth inhibition of human OVCAR3 cells after 48 hrs by sulforhodamine B assay; settings: OVCAR-3, 48 h; for CC50: read-out: LC50 (the source's name)
NCI-H226 = assay: Growth inhibition of human NCI-H226 cells assessed as cell growth at 10^-7 M after 48 hrs by sulforhodamine B assay; settings: NCI-H226, 48 h, read-out: Activity

## O=C1/C(=C/c2ccc(Cl)cc2Cl)CN(S(=O)(=O)c2ccccc2)C/C1=C\c1ccc(Cl)cc1Cl
A549 [1]
  GI50: 277 nM
  TGI: 887 nM
  CC50: > 100000 nM
SK-MEL-5
  growth at 1 µM: 94%
IGROV-1
  GI50: 317 nM
  TGI: 649 nM
  CC50: > 100000 nM
A549 [2]
  growth at 0.1 µM: 94%
MDA-MB-468
  GI50: 1130 nM
  TGI: 3890 nM
  CC50: > 100000 nM
[3]
  growth at 0.1 µM: 102%
[4]
  growth at 100 µM: -11%
NCI-H460 [5]
  growth at 1 µM: -53%
HT-29
  growth at 0.1 µM: 101%
[6]
  growth at 0.1 µM: 84%
[7]
  GI50: 1700 nM
  LC50: > 100000 nM
  growth at 0.01 µM: 81%
  TGI: 5500 nM
[8]
  GI50: 383 nM
  TGI: 1360 nM
  CC50: 4540 nM
[9]
  growth at 100 µM: -14%
ACHN
  growth at 1 µM: 47%
[10]
  growth at 0.1 µM: 108%
SW-620
  growth at 100 µM: -27%
M14
  GI50: 3630 nM
  growth at 0.01 µM: 102%
  CC50: > 100000 nM
  TGI: > 100000 nM
SNB-19
  growth at 100 µM: -23%
COLO 205 [11]
  Activity: 29%
[12]
  growth at 1 µM: 13%
[13]
  GI50: 236 nM
  TGI: 639 nM
  CC50: 4750 nM
NCI-H522
  GI50: 851 nM
  growth at 0.01 µM: 95%
  CC50: 9770 nM
  TGI: 3020 nM
RPMI-8226
  growth at 0.1 µM: 91%
A498
  growth at 100 µM: -8%
COLO 205 [14]
  GI50: 427 nM
  LC50: > 100000 nM
  growth at 0.01 µM: 106%
  TGI: 2000 nM
COLO 205 [15]
  Activity: 18%
NCI-H460 [16]
  growth at 100 µM: -61%
[17]
  GI50: 427 nM
  LC50: > 100000 nM
  growth at 0.01 µM: 98%
  TGI: 2090 nM
[18]
  growth at 1 µM: -2%
MDA-MB-231
  GI50: 466 nM
  TGI: 2160 nM
SK-MEL-28
  growth at 1 µM: 93%
[19]
  GI50: 310 nM
  TGI: 818 nM
  CC50: 5010 nM
NCI-H226
  growth at 0.1 µM: 97%

## Cc1ccc(S(=O)(=O)N2C/C(=C\c3cc(F)cc(F)c3)C(=O)/C(=C/c3cc(F)cc(F)c3)C2)cc1
A549 [1]
  GI50: 2860 nM
  TGI: 14600 nM
  CC50: > 100000 nM
SK-MEL-5
  growth at 1 µM: 3%
IGROV-1
  GI50: 436 nM
  TGI: 1550 nM
  CC50: 5170 nM
A549 [2]
  growth at 0.1 µM: 93%
MDA-MB-468
  GI50: 349 nM
  TGI: 1710 nM
  CC50: 5770 nM
[3]
  growth at 0.1 µM: 105%
[4]
  growth at 100 µM: -75%
NCI-H460 [5]
  growth at 1 µM: 45%
HT-29
  growth at 0.1 µM: 91%
[6]
  growth at 0.1 µM: 88%
[7]
  GI50: 1120 nM
  LC50: 9770 nM
  growth at 0.01 µM: 72%
  TGI: 3310 nM
[8]
  GI50: 602 nM
  TGI: 1910 nM
  CC50: 4850 nM
[9]
  growth at 100 µM: -71%
ACHN
  growth at 1 µM: -26%
[10]
  growth at 0.1 µM: 112%
SW-620
  growth at 100 µM: -74%
M14
  GI50: 363 nM
  growth at 0.01 µM: 103%
  CC50: 5890 nM
  TGI: 1410 nM
SNB-19
  growth at 100 µM: -100%
COLO 205 [11]
  Activity: 24%
[12]
  growth at 1 µM: 35%
[13]
  GI50: 1090 nM
  TGI: 2370 nM
  CC50: 5170 nM
NCI-H522
  GI50: 316 nM
  growth at 0.01 µM: 100%
  CC50: 3890 nM
  TGI: 955 nM
RPMI-8226
  growth at 0.1 µM: 17%
A498
  growth at 100 µM: -86%
COLO 205 [14]
  GI50: 617 nM
  LC50: 6170 nM
  growth at 0.01 µM: 107%
  TGI: 2090 nM
COLO 205 [15]
  Activity: 43%
NCI-H460 [16]
  growth at 100 µM: -72%
[17]
  GI50: 1200 nM
  LC50: 6760 nM
  growth at 0.01 µM: 94%
  TGI: 2880 nM
[18]
  growth at 1 µM: 15%
MDA-MB-231
  GI50: 270 nM
  TGI: 784 nM
MDA-MB-231; read-out: LC50 (the source's name)
  CC50: 8480 nM
SK-MEL-28
  growth at 1 µM: 29%
[19]
  GI50: 441 nM
  TGI: 1440 nM
  CC50: 4560 nM
NCI-H226
  growth at 0.1 µM: 94%
